# Values of other authors in patent publication US8513439B2, “Antidepressant oral pharmaceutical compositions” (Wockhardt Limited, priority 2005, dated 2013).
# How the values were obtained:
# dopaminergic receptors = details: in vitro
# adrenergic receptors = details: in vitro
# cholinergic receptors = details: in vitro
# histaminergic receptors = details: in vitro
# [1] = in vivo
smiles,measurement,setting,value
"CNCC[C@H](Oc1cccc2ccccc12)c1cccs1 [Duloxetine, (S)—N-methyl-3-(1-naphthyloxy)-3-(2-thienyl)propan-1-amine]",affinity for dopaminergic receptors,dopaminergic receptors,no significant affinity
same,affinity for adrenergic receptors,adrenergic receptors,no significant affinity
same,affinity for cholinergic receptors,cholinergic receptors,no significant affinity
same,affinity for histaminergic receptors,histaminergic receptors,no significant affinity
same,inhibition of monoamine oxidase (MAO),monoamine oxidase (MAO),does not inhibit
same,dosage hydrolyzed to 1-naphthol,"pH of 1.0, within one hour",50%
same,dosage degraded to 1-Naphthol,"pH of 2.0, in one hour",10%
same,time for 10% degradation,pH of 4.0,up to 63 hours
same,enzymes metabolizing to inactive metabolites in the liver,[1],CYP1A2 and CYP2D6
same,protein bound,[1],> 90%
